In patent US20110217324A1, “INHIBITORS OF ANTIGEN PRESENTATION BY MHC CLASS II MOLECULES AND METHODS OF USE THEREOF” (priority 2007, published 2011) one finds IC50 data, which are given here for 25 compounds.

Numbered stars: 1 amine (or outer) side, 2 acyl side, 3 side chain; on linkers, the order of the positions; unused ones are H or OH. Square brackets hold non-standard residues; d marks the D form. Peptide text beside a SMILES is read from it. * marks the point of attachment. Phe(3,4-Cl2) = N[C@@H](Cc1ccc(Cl)c(Cl)c1)C(=O)O; X7 = O=C([C@H](Cc1cccc2[nH]ncc12)N[*:1])[*:2]; Trp(1-Me) = Cn1cc(C[C@H](N)C(=O)O)c2ccccc21; Oic = O=C(O)[C@@H]1C[C@@H]2CCCC[C@@H]2N1; Phe(4-F) = N[C@@H](Cc1ccc(F)cc1)C(=O)O; Gly(cPent) = N[C@H](C(=O)O)C1CCCC1; Lys(Me2) = CN(C)CCCC[C@H](N)C(=O)O; Igl = N[C@H](C(=O)O)C1Cc2ccccc2C1; Tic = O=C(O)[C@@H]1Cc2ccccc2CN1; Cit = NC(=O)NCCC[C@H](N)C(=O)O; Chg = N[C@H](C(=O)O)C1CCCCC1; Tle = CC(C)(C)[C@H](N)C(=O)O; X3 = c1cc2cc(CCN*)ccc2[nH]1; Pip = O=C(O)[C@@H]1CCCCN1; Nva = CCC[C@H](N)C(=O)O; Abu = CC[C@H](N)C(=O)O; βAla = NCCC(=O)O

In this assay the target is T1, MHC DR2 (DRB1*1501/DRA*0101) (Homo sapiens, UniProt P01903+P01911).
T1 construct: endogenous in cells; host or cells: EBV homozygous (B lymphoblastoid) cell lines
As to the kind of experiment: HLA II Binding Assay (competition with biotinylated reference peptide). The settings on record: purified HLA-DR, biotinylated reference compound for DRB1*1501, 37° C. 24 h to 72 h; read-out: Inhibition of peptide binding IC50 (against MHC DR2 (DRB1*1501/DRA*0101)). As to the method:
EBV homozygous cell lines are used as sources of human HLA class II molecules. […] The supernatant from lysed cells after centrifugation (100,000 g for 1 h) is applied to Sepharose 4B and protein A-Sepharose 4B columns and then to the specific antibody column. […] Fractions are immediately neutralized to pH 7 with 2 mM Tris-HCl (pH 6.8) and extensively dialyzed against 1 mM n-dodecyl β-D-maltoside, 150 mM NaCl, 10 mM phosphate (pH 7) buffer.
Samples (100 μl per well) are incubated in 96-wells polypropylene plates at 37° C. for 24 h to 72 h. After neutralization with 50 μl of 450 mM Tris HCl pH 7.5, 0.003% thimerosal, 0.3% BSA, 1 mM n-dodecyl β-D-maltoside buffer, samples are applied to 96-well maxisorp ELISA plates previously coated with 10 μg/ml L243 Mab and saturated with 100 mM Tris HCl pH=7.5, 0.3% BSA, and 0.003% thimerosal buffer. Samples are allowed to bind to the antibody-coated plates for 2 h at room temperature. Bound biotinylated compound is detected by incubating streptavidin-alkaline phosphatase conjugate, and after washings, by the addition of 4-methylumbelliferyl phosphate substrate. […] Maximal binding is determined by incubating the biotinylated peptide with the MHC class II molecule in the absence of competitor. Binding specificity is assessed by adding an excess of non-biotinylated peptide.
Turning to `CC[C@H](N)C(=O)N[C@H](C(=O)N[C@H](C(=O)N[C@@H](CCCNC(N)=O)C(=O)N1Cc2ccccc2C[C@H]1C(=O)N[C@@H](Cc1ccccc1)C(N)=O)C1CCCCC1)C(C)C` [(NH2-Abu)V(Chg)(Cit)(Tic)F] (H-[Abu]V[Chg][Cit][Tic]F-NH2), the IC50 lay within 1 to 10 nM.

Consider `CC(=O)N[C@H](C(=O)N[C@@H](CCCNC(=N)N)C(=O)N1Cc2ccccc2C[C@H]1C(=O)N[C@@H](Cc1cn(C)c2ccccc12)C(N)=O)C1CCCCC1` [Ac(Chg)R(Tic)(1-Me-Trp)] (Ac-[Chg]R[Tic][Trp(1-Me)]-NH2), for which the IC50 was 100 to 1000 nM.

Take `CC(=O)N[C@H](C(=O)N[C@@H](CCCNC(=N)N)C(=O)N1CCCC[C@H]1C(=O)N[C@@H](Cc1ccccc1)C(=O)N1CCCC[C@H]1C(N)=O)C1CCCCC1` [Ac(Chg)R(homo Pro)F(homo Pro)] (Ac-[Chg]R[Pip]F[Pip]-NH2): the IC50 fell in the range of 100 to 1000 nM.

As for `CC(=O)N[C@H](C(=O)N[C@@H](CCCNC(=N)N)C(=O)N1Cc2ccccc2C[C@H]1C(=O)N[C@@H](Cc1ccccc1)C(=O)N1CCCC[C@H]1C(=O)O)C1CCCC1` [Ac(Cpg)R(Tic)F(homo Pro)COOH] (Ac-[Gly(cPent)]R[Tic]F[Pip]-OH), the IC50 is 10 to 100 nM.

Regarding `CC(=O)N[C@H](C(=O)N[C@H](C(=O)N[C@@H](CCCNC(N)=O)C(=O)N1Cc2ccccc2C[C@H]1C(=O)N[C@@H](Cc1ccccc1)C(N)=O)C1CCCCC1)C(C)C` [AcV(Chg)(Cit)(Tic)F] (Ac-V[Chg][Cit][Tic]F-NH2), the IC50 is 1 to 10 nM.

`CC(=O)N[C@H](C(=O)N[C@H](C(=O)N[C@@H](CCCNC(=N)N)C(=O)N1Cc2ccccc2C[C@H]1C(=O)NCCc1ccc2[nH]ccc2c1)C1CCCCC1)C(C)C` [AcV(Chg)R(Tic)(5-ethylaminoindole)] (Ac-V[Chg]R[Tic]-X3): the IC50 lay in the range of 100 to 1000 nM.

Regarding `CC(=O)N[C@H](C(=O)N[C@@H](CCCCN(C)C)C(=O)N1Cc2ccccc2C[C@H]1C(=O)N[C@@H](Cc1ccccc1)C(=O)N1CCCC[C@H]1C(N)=O)C1CCCC1` [Ac(Cpg)(diMeK)(Tic)F(homo Pro)] (Ac-[Gly(cPent)][Lys(Me2)][Tic]F[Pip]-NH2), the IC50 is 10 to 100 nM.

On to (NH2-Beta Ala)V(Chg)(pyrimidinyl)(Tic)F, for which the IC50 fell in the range of 10 to 100 nM.

Turning to `CNC(=O)[C@H](Cc1ccccc1)NC(=O)[C@@H]1Cc2ccccc2CN1C(=O)[C@H](CCCNC(=N)N)NC(=O)[C@@H](NC(=O)[C@@H](NC(C)=O)C(C)C)C1CCCCC1` [AcV(Chg)R(Tic)F-CONHMe] (Ac-V[Chg]R[Tic]F-NHMe), the IC50 fell in the range of 10 to 100 nM.

On to `CC(=O)N[C@H](C(=O)N[C@@H](CCCNC(=N)N)C(=O)N1Cc2ccccc2C[C@H]1C(=O)N[C@@H](Cc1c[nH]c2ccccc12)C(N)=O)C1CCCCC1` [Ac(Chg)R(Tic)(Trp)] (Ac-[Chg]R[Tic]W-NH2), for which the IC50 was 10 to 100 nM.

As to `CC(=O)N[C@H](C(=O)N[C@H](C(=O)N[C@@H](CCCNC(=N)N)C(=O)N1Cc2ccccc2C[C@H]1C(=O)N[C@@H](Cc1ccc(Cl)c(Cl)c1)C(N)=O)C1CCCCC1)C(C)C` [AcV(Chg)R(Tic)(3,4-dichloro Phe)] (Ac-V[Chg]R[Tic][Phe(3,4-Cl2)]-NH2), the IC50 was in the range of 1 to 10 nM.

In the case of `CC(=O)N[C@H](C(=O)N[C@H](C(=O)N[C@@H](CCCNC(=N)N)C(=O)N1Cc2ccccc2C[C@H]1C(=O)N[C@@H](Cc1cccc2[nH]ncc12)C(N)=O)C1CCCCC1)C(C)C` [AcV(Chg)R(Tic)(4-Indazole)] (Ac-V[Chg]R[Tic][X7]-NH2), the IC50 was 1 to 10 nM.

Regarding `CC(=O)N[C@H](C(=O)N[C@H](C(=O)N[C@@H](CCCNC(=N)N)C(=O)N1[C@H](C(=O)N[C@@H](Cc2ccccc2)C(N)=O)C[C@@H]2CCCC[C@@H]21)C1CCCCC1)C(C)C` [AcV(Chg)R(Oic)F] (Ac-V[Chg]R[Oic]F-NH2), the IC50 fell in the range of 100 to 1000 nM.

Turning to `CCC[C@H](NC(C)=O)C(=O)N[C@H](C(=O)N[C@@H](CCCNC(=N)N)C(=O)N1Cc2ccccc2C[C@H]1C(=O)N[C@@H](Cc1ccccc1)C(N)=O)C1CCCCC1` [Ac(nor-V)(Chg)R(Tic)F] (Ac-[Nva][Chg]R[Tic]F-NH2), the IC50 lay in the range of 1 to 10 nM.

`CO[C@H](C)[C@H](NC(C)=O)C(=O)N[C@H](C(=O)N[C@@H](CCCNC(=N)N)C(=O)N1Cc2ccccc2C[C@H]1C(=O)N[C@@H](Cc1ccccc1)C(N)=O)C1CCCCC1` [Ac(T(OMe))(Chg)R(Tic)F] (Ac-T(Me)[Chg]R[Tic]F-NH2): the IC50 was 1 to 10 nM.

`CC[C@H](N)C(=O)N[C@H](C(=O)N[C@H](C(=O)N[C@@H](CCCNC(=N)N)C(=O)N1Cc2ccccc2C[C@H]1C(=O)N[C@@H](Cc1ccccc1)C(N)=O)C1CCCCC1)C(C)C` [(NH2-Abu)V(Chg)R(Tic)F] (H-[Abu]V[Chg]R[Tic]F-NH2): the IC50 was in the range of 1 to 10 nM.

`CC(=O)N[C@H](C(=O)N[C@H](C(=O)N[C@@H](CCCNC(=N)N)C(=O)N1Cc2ccccc2C[C@H]1C(=O)N[C@@H](Cc1ccc(F)cc1)C(N)=O)C1CCCCC1)C(C)C` [AcV(Chg)R(Tic)(4′-F Phe)] (Ac-V[Chg]R[Tic][Phe(4-F)]-NH2): the IC50 was in the range of 1 to 10 nM.

Take `CC(C)[C@H](NC(=O)CCN)C(=O)N[C@H](C(=O)N[C@@H](CCCNC(N)=O)C(=O)N1Cc2ccccc2C[C@H]1C(=O)N[C@@H](Cc1ccccc1)C(N)=O)C1CCCCC1` [(NH2-Beta Ala)V(Chg)(Cit)(Tic)F] (H-[βAla]V[Chg][Cit][Tic]F-NH2): the IC50 was in the range of 1 to 10 nM.

As to `CC(=O)N[C@H](C(=O)N[C@H](C(=O)N[C@@H](CCCNC(=N)N)C(=O)N1Cc2ccccc2C[C@H]1C(=O)N[C@@H](Cc1c[nH]c2ccccc12)C(N)=O)C1CCCCC1)C(C)C` [AcV(Chg)R(Tic)(Trp)] (Ac-V[Chg]R[Tic]W-NH2), the IC50 is 1 to 10 nM.

For `CC(=O)N[C@H](C(=O)N[C@@H](CCCNC(=N)N)C(=O)N1Cc2ccccc2C[C@H]1C(=O)NC(Cc1cccc2[nH]ccc12)C(N)=O)C1CCCCC1` (stereo partly shown) [Ac(Chg)R(Tic)-(4′-Indolyl Ala)], the IC50 is 10 to 100 nM.

With `CNC(=O)[C@H](Cc1ccccc1)NC(=O)[C@@H]1Cc2ccccc2CN1C(=O)[C@H](CCCNC(=N)N)NC(=O)[C@@H](NC(=O)[C@@H](NC(C)=O)C(C)C)C1Cc2ccccc2C1` [AcV(Indgly)R(Tic)F-CONHMe] (Ac-V[Igl]R[Tic]F-NHMe), the IC50 was 1 to 10 nM.

Regarding `CC(=O)N[C@H](C(=O)N[C@H](C(=O)N[C@@H](CCCNC(=N)N)C(=O)N1Cc2ccccc2C[C@H]1C(=O)N[C@@H](Cc1ccccc1)C(N)=O)C1CCCCC1)[C@@H](C)O` [Ac(Thr)(Chg)R(Tic)F] (Ac-T[Chg]R[Tic]F-NH2), the IC50 fell in the range of 10 to 100 nM.

In the case of `CC(C)[C@H](NC(=O)CN)C(=O)N[C@H](C(=O)N[C@@H](CCCNC(=N)N)C(=O)N1Cc2ccccc2C[C@H]1C(=O)N[C@@H](Cc1ccccc1)C(N)=O)C1CCCCC1` [(NH2-Gly)V(Chg)R(Tic)F] (H-GV[Chg]R[Tic]F-NH2), the IC50 lay within 1 to 10 nM.

As to `CC(=O)N[C@H](C(=O)N[C@H](C(=O)N[C@@H](CCCNC(=N)N)C(=O)N1Cc2ccccc2C[C@H]1C(=O)N[C@@H](Cc1ccccc1)C(N)=O)C1CCCCC1)C(C)(C)C` [Ac(t-BuG)(Chg)R(Tic)F] (Ac-[Tle][Chg]R[Tic]F-NH2), the IC50 lay within 1 to 10 nM.

With `CC(=O)N[C@H](C(=O)N[C@H](C(=O)N[C@@H](CCCNC(=N)N)C(=O)N1Cc2ccccc2C[C@H]1C(=O)N[C@@H](Cc1ccccc1)C(=O)O)C1CCCCC1)C(C)C` [AcV(Chg)R(Tic)F-COOH] (Ac-V[Chg]R[Tic]F-OH), the IC50 fell in the range of 10 to 100 nM.
